Data published in patent EP2921179A1, “Micellar nanoparticles containing antitumoral glycosides” (Fundación Centro Nacional de Investigaciones …, priority 2014, dated 2015).
Like-named read-outs stand apart in the source and are kept apart here.

Legend:
[1] = system: A549 cell line; test: MTT assay, inhibition of A549 tumor cell proliferation; format: cell-based, Human; conditions: 48 h treatment, read-out: ID50 (µM) A549
Description: Human A549 cell line and C6 rat glioma cell line were maintained in Dulbecco's modified Eagle's medium (DMEM) complete medium (Sigma-Aldrich, St. Louis, MO), supplemented with fetal bovine serum (FBS, 10%; GLinus, Madrid, Spain), glutamine (2 mM), penicillin (50 IU/mL), and streptomycin ([…]), at 37 °C in a 5% CO2 humidified atmosphere. Exponentially growing cells were seeded on 96-well plates (Beckton Dickinson, Le Pont de Claix, France), in DMEM complete medium, at a density of 1.5 x 10^4 cells/well for C6 cell and 5 x 10^3 cells/well for A549 cells respectively. The cells were allowed to attach with 5% of CO2 at 37°C for overnight, and then, to serum starve the cells, the medium was replaced by 100 µL of fresh DMEM without FBS and maintained overnight. Stock solutions in EtOH of the glycoside derivatives of formula (I) of Example 2 (50 mM) or stock solutions in PBS of the micelles of Example 3 were finally dissolved in DMEM complete medium for the treatments. The cells were treated with serial dilutions of glycoside derivatives of formula (I) of Example 2 or micelles of Example 3 for 48 h. For the experiments with micelles of Example 3, some 96-well plates were placed over a MagnetoFACTOR-96 device (Chemicell) to produce a strong magnetic field to each well and increase the proximity of the nanoparticles to the cells. Also, iron oxide nanoparticles coated with azelaic acid were tested (Azelaic-NP, obtained as described in Chemistry - A European Journal, 2008, 14 (30), 9126-9130) Cell proliferation was evaluated with an MTT assay (Sigma-Aldrich), based on the conversion of the water-soluble MTT into an insoluble formazan. Briefly, after 48 h of compound treatment, the medium was replaced by 100 µL of fresh DMEM without phenol red containing MTT (5 mg/mL) solution, and cells were incubated for additional 3 h at 37 °C with 5% CO2. After this time, the medium was removed, the precipitated formazan was dissolved in 100 µL of DMSO, and the solution optical density was measured at 595 nm in Spectramax Plus equipment (Molecular Devices Corporation). […]

[2] = system: C6 rat glioma cell line; test: MTT assay, inhibition of C6 tumor cell proliferation; format: cell-based; conditions: for IC50: free glycoside derivative, 48 h treatment, MTT, read-out: ID50 (µM) C6
Description: Human A549 cell line and C6 rat glioma cell line were maintained in Dulbecco's modified Eagle's medium (DMEM) complete medium (Sigma-Aldrich, St. Louis, MO), supplemented with fetal bovine serum (FBS, 10%; GLinus, Madrid, Spain), glutamine (2 mM), penicillin (50 IU/mL), and streptomycin ([…]), at 37 °C in a 5% CO2 humidified atmosphere. Exponentially growing cells were seeded on 96-well plates (Beckton Dickinson, Le Pont de Claix, France), in DMEM complete medium, at a density of 1.5 x 10^4 cells/well for C6 cell and 5 x 10^3 cells/well for A549 cells respectively. The cells were allowed to attach with 5% of CO2 at 37°C for overnight, and then, to serum starve the cells, the medium was replaced by 100 µL of fresh DMEM without FBS and maintained overnight. Stock solutions in EtOH of the glycoside derivatives of formula (I) of Example 2 (50 mM) or stock solutions in PBS of the micelles of Example 3 were finally dissolved in DMEM complete medium for the treatments. The cells were treated with serial dilutions of glycoside derivatives of formula (I) of Example 2 or micelles of Example 3 for 48 h. For the experiments with micelles of Example 3, some 96-well plates were placed over a MagnetoFACTOR-96 device (Chemicell) to produce a strong magnetic field to each well and increase the proximity of the nanoparticles to the cells. Also, iron oxide nanoparticles coated with azelaic acid were tested (Azelaic-NP, obtained as described in Chemistry - A European Journal, 2008, 14 (30), 9126-9130) Cell proliferation was evaluated with an MTT assay (Sigma-Aldrich), based on the conversion of the water-soluble MTT into an insoluble formazan. Briefly, after 48 h of compound treatment, the medium was replaced by 100 µL of fresh DMEM without phenol red containing MTT (5 mg/mL) solution, and cells were incubated for additional 3 h at 37 °C with 5% CO2. After this time, the medium was removed, the precipitated formazan was dissolved in 100 µL of DMSO, and the solution optical density was measured at 595 nm in Spectramax Plus equipment (Molecular Devices Corporation). Absorption values were referred to positive proliferation controls (cells cultured in DMEM complete medium) and negative proliferation controls cells cultured in DMEM without FBS). Inhibition was expressed as an ID50 value, the compound concentration that reduced maximal proliferation by 50%, and the results are shown in Table 3. Table 3. Biological activity of glycoside derivatives of formula (I) and micelles comprising said glycoside derivatives.

[3] = Solubility / stability in water; format: physicochemical; conditions: pure water, observed by eye
Source text: For GC-22 and TFA-GC22, the glycosides alone are not soluble in pure water, while the micelles GC-22-NPs and TFA-GC22-NPs are stable in the aqueous phase. Precipitate of GC-22 and TFA-GC22 can be observed by eye straight away in a pure water solution and no re-dispersion is produced when the aqueous micellar solution is mixed with an organic solvent selected from the group consisting of dichloromethane, chloroform, hexane, heptane, toluene, in a volume proportion of 1:1.

[4] = Homo sapiens, A549, free glycoside derivative

Row | IC50 [1, 4] | IC50 ([2]; Rattus norvegicus, Glioma cell) | solubility in water [3] | SMILES | IC50 ([1]; free glycoside derivative) | IC50 [2] | inhibition of proliferation of C6 tumor cells ([2]; result in words)
1 | 10 µM | 15.5 ± 0.3 µM | not soluble | CCCCCCCC/C=C\CCCCCCCCO[C@H]1O[C@H](CO)[C@@H](O)[C@H](O)[C@H]1NC(C)=O [GC22, Oleyl 2-acetamido-2-deoxy-α-D-glucopyranoside] |  |  | 
2 | 8.6 µM | 14.2 ± 0.3 µM | not soluble | CCCCCCCC/C=C\CCCCCCCCO[C@H]1O[C@H](CO)[C@@H](O)[C@H](O)[C@H]1NC(=O)C(F)(F)F [TFAGC22, Oleyl2-deoxy-2-trifluoroacetamido-α-D-glucopyranoside] |  |  | 

Row | SMILES | IC50 [1, 4] | IC50 ([2]; Rattus norvegicus, Glioma cell) | solubility in water [3] | IC50 ([1]; free glycoside derivative) | IC50 [2] | inhibition of proliferation of C6 tumor cells ([2]; result in words)
3 | CCCCCCCC/C=C\CCCCCCCCO[C@H]1O[C@H](COS(=O)(=O)[O-])[C@@H](O)[C@H](O)[C@H]1NC(C)=O.[K+] [IG20, Oleyl 2-acetamido-2-deoxy-6-O-(oxosulfonyl)-α-D-glucopyranoside potassium salt] |  |  | soluble in water | 97 µM | > 100 µM | did not show inhibition
